# Experimental data: patent US10506810B2, “Synergistic herbicidal composition” (QINGDAO KINGAGROOT RESISTANT WEED MANAGEMENT CO., LTD., priority 2015, dated 2019)
# Where two headings read alike, the source gives them in different places.
# How the values were obtained:
# Capsella bursa-pastoris = test: pot-culture method, stem and leaf treatment in greenhouse, fresh weight inhibition rate 20 days after treatment (Gowing method); type: in vivo
# Experimental: (§1) Capsella bursa-pastoris, Myosoton aquaticum, Alopecurus japonicus were collected from corn fields in Huangdao Experimental Base of Shandong Province.
# (§2) The above weeds were cultivated by a pot culture method. […] Full and uniform weed seeds were selected, soaked in warm water at 25° C. for 6 hours, and germinated in a 28° C. biochemical incubator (darkness). […] A certain amount of water was added to the enamel pan regularly to keep the soil moist.
# (§3) The technical materials were all dissolved in acetone, and diluted with an aqueous solution containing 0.1% emulsifier T-80. The dilution is performed as required.
# (§4) A ratio of the active ingredient A to the active ingredient B and amounts thereof in each group depends on the characteristics and toxicity of the two agents, as well as the main application purpose of a corresponding formulation. Based on the pre-tests in this study, the dosage of the active ingredient A and the active ingredient B applied alone and in combination were shown in the tables, and a total 15 groups were designed. Water containing the solvent and emulsifier same with the above groups but free of the agents was used as a blank control.
# (§5) 3 pots with 20 weed seeds per pot were treated in one treatment with […] per treatment, that is, a total of 60 weeds were treated in one treatment.
# (§6) The agents were used for only once in the experiment. In the stage of weeds with 2 leaves and 1 core, the weeds were thinned out to maintain 15 weeds per pot and 45 weeds for each treatment, then continued to be cultured to 3-5-leaves stage of Capsella bursa-pastoris and Myosoton aquaticum, and 3-leaves and 1-core stage of Alopecurus japonicus, and treated.
# (§7) The well-cultured weeds were evenly placed on a platform with an area of 0.5 m^2, and a solution of agents was sprayed on the stems and leaves thereof by the 3WP-2000-type walking spray tower at a dosage of 30 kg/ha and at a spray pressure of 0.3 MPa. After all the solution was sprayed, the valve was closed. After 30 seconds, the door of the spray tower was opened, and the nutritional bowl was taken out. Then the valve was opened, and the spray tube was cleaned by spraying 50 ml of water.
# (§8) A pot-culture method was employed. For the cultivation of weeds, please refer to the Section 1.2, and “Pesticide guidelines for laboratory bioactivity tests—herbicides”. As to a method for applying agents, please refer to the section 2.3.2, that is, a method for treating stems and leaves was employed.
# (§9) A method for investigating absolute number was employed, wherein whole seedlings of survival weeds were cut off with a blade along the soil surface, and the fresh weight of the weeds was weighed with an analytical balance. For dead weeds, the fresh weight thereof was zero.
# (§10) The investigation was performed after 20 days of the treatment for only once.
# (§11) Wherein, in the formula, X represented the fresh weight inhibition rate of the active ingredient A in a dosage of P, and Y represented the fresh weight inhibition rate of the active ingredient B in a dosage of Q.
# Myosoton aquaticum = test: as above; type: in vivo
# Experimental: as §1, §2, §3, §4, §5, §6, §7, §8, §9, §10, §11
# [1] = Capsella bursa-pastoris, 480 h, read-out: actual fresh weight inhibition rate
# [2] = Myosoton aquaticum, 480 h, read-out: actual fresh weight inhibition rate
structure (smiles),measurement,setting,value
"CC(C)CCCCCOC(=O)COc1ccc(Cl)cc1Cl [2,4-D isooctyl ester, reference compound]",actual fresh weight inhibition rate (%),Capsella bursa-pastoris; dosage 200 g/hm^2,21.1%
same,actual fresh weight inhibition rate (%),Capsella bursa-pastoris; dosage 350 g/hm^2,34.2%
same,actual fresh weight inhibition rate (%),Capsella bursa-pastoris; dosage 500 g/hm^2,55.9%
same,actual fresh weight inhibition rate (%),Myosoton aquaticum; dosage 200 g/hm^2,15.4%
same,actual fresh weight inhibition rate (%),Myosoton aquaticum; dosage 350 g/hm^2,26.3%
same,actual fresh weight inhibition rate (%),Myosoton aquaticum; dosage 500 g/hm^2,47.9%
"CCCCOC(=O)COc1ccc(Cl)cc1Cl [2,4-butyl ester, 2,4-D butyl ester, reference compound]",actual fresh weight inhibition rate (%),Capsella bursa-pastoris; dosage 200 g/hm^2,23.4%
same,actual fresh weight inhibition rate (%),Capsella bursa-pastoris; dosage 350 g/hm^2,42.9%
same,actual fresh weight inhibition rate (%),Capsella bursa-pastoris; dosage 500 g/hm^2,55.6%
same,actual fresh weight inhibition rate (%),Myosoton aquaticum; dosage 200 g/hm^2,18.4%
same,actual fresh weight inhibition rate (%),Myosoton aquaticum; dosage 350 g/hm^2,29.8%
same,actual fresh weight inhibition rate (%),Myosoton aquaticum; dosage 500 g/hm^2,49.3%
N#Cc1cc(Br)c(O)c(Br)c1 [Bromoxynil],pest or weed control at 240 g/ha,"Capsella bursa-pastoris; Capsella bursa-pastoris, 480 h, dosage 240 g/hm^2, read-out: actual fresh weight inhibition rate",40.6%
same,pest or weed control at 360 g/ha,"Capsella bursa-pastoris; Capsella bursa-pastoris, 480 h, dosage 360 g/hm^2, read-out: actual fresh weight inhibition rate",58.5%
same,pest or weed control at 480 g/ha,"Capsella bursa-pastoris; Capsella bursa-pastoris, 480 h, dosage 480 g/hm^2, read-out: actual fresh weight inhibition rate",81.3%
same,pest or weed control at 240 g/ha,"Myosoton aquaticum; Myosoton aquaticum, 480 h, dosage 240 g/hm^2, read-out: actual fresh weight inhibition rate",30.5%
same,pest or weed control at 360 g/ha,"Myosoton aquaticum; Myosoton aquaticum, 480 h, dosage 360 g/hm^2, read-out: actual fresh weight inhibition rate",38.7%
same,pest or weed control at 480 g/ha,"Myosoton aquaticum; Myosoton aquaticum, 480 h, dosage 480 g/hm^2, read-out: actual fresh weight inhibition rate",47.9%
"Cc1cc(Cl)ccc1OCC(=O)O [MCPA, 2-methyl-4-chlorophenoxy acetic acid, reference compound]",actual fresh weight inhibition rate (%),Capsella bursa-pastoris; dosage 300 g/hm^2,33.2%
same,actual fresh weight inhibition rate (%),Capsella bursa-pastoris; dosage 600 g/hm^2,41.7%
same,actual fresh weight inhibition rate (%),Capsella bursa-pastoris; dosage 900 g/hm^2,60.5%
same,actual fresh weight inhibition rate (%),Myosoton aquaticum; dosage 300 g/hm^2,23.8%
same,actual fresh weight inhibition rate (%),Myosoton aquaticum; dosage 600 g/hm^2,35.6%
same,actual fresh weight inhibition rate (%),Myosoton aquaticum; dosage 900 g/hm^2,45.8%
"Cc1cc(Cl)ccc1OCC(=O)[O-].[Na+] [MCPA-Na, reference compound]",actual fresh weight inhibition rate (%),Capsella bursa-pastoris; dosage 400 g/hm^2,22.1%
same,actual fresh weight inhibition rate (%),Capsella bursa-pastoris; dosage 800 g/hm^2,38.3%
same,actual fresh weight inhibition rate (%),Capsella bursa-pastoris; dosage 1200 g/hm^2,56.7%
same,actual fresh weight inhibition rate (%),Myosoton aquaticum; dosage 400 g/hm^2,24.8%
same,actual fresh weight inhibition rate (%),Myosoton aquaticum; dosage 800 g/hm^2,36.9%
same,actual fresh weight inhibition rate (%),Myosoton aquaticum; dosage 1200 g/hm^2,50.9%
"Cc1cc(Cl)ccc1OCC(=O)OCCCCCC(C)C [MCPA-isooctyl, reference compound]",actual fresh weight inhibition rate (%),Capsella bursa-pastoris; dosage 600 g/hm^2,33.2%
same,actual fresh weight inhibition rate (%),Capsella bursa-pastoris; dosage 1200 g/hm^2,41.7%
same,actual fresh weight inhibition rate (%),Capsella bursa-pastoris; dosage 1800 g/hm^2,60.5%
same,actual fresh weight inhibition rate (%),Myosoton aquaticum; dosage 600 g/hm^2,23.8%
same,actual fresh weight inhibition rate (%),Myosoton aquaticum; dosage 1200 g/hm^2,35.6%
same,actual fresh weight inhibition rate (%),Myosoton aquaticum; dosage 1800 g/hm^2,45.8%
CC(C)N1C(=O)c2ccccc2NS1(=O)=O [bentazon],pest or weed control at 500 g/ha,"Capsella bursa-pastoris; 480 h, Capsella bursa-pastoris, 500 g/hm^2, read-out: actual fresh weight inhibition rate",38.5%
same,pest or weed control at 750 g/ha,"Capsella bursa-pastoris; 480 h, Capsella bursa-pastoris, 750 g/hm^2, read-out: actual fresh weight inhibition rate",58.2%
same,pest or weed control at 1000 g/ha,"Capsella bursa-pastoris; 480 h, Capsella bursa-pastoris, 1000 g/hm^2, read-out: actual fresh weight inhibition rate",73.1%
same,pest or weed control at 500 g/ha,"Myosoton aquaticum; Myosoton aquaticum, 480 h, Myosoton aquaticum, 500 g/hm^2, read-out: actual fresh weight inhibition rate",33.4%
same,pest or weed control at 750 g/ha,"Myosoton aquaticum; Myosoton aquaticum, 480 h, Myosoton aquaticum, 750 g/hm^2, read-out: actual fresh weight inhibition rate",46.2%
same,pest or weed control at 1000 g/ha,"Myosoton aquaticum; Myosoton aquaticum, 480 h, Myosoton aquaticum, 1000 g/hm^2, read-out: actual fresh weight inhibition rate",58.7%
CCCCCCCC(=O)Oc1c(Br)cc(C#N)cc1Br [bromoxynil octanoate],pest or weed control at 190 g/ha,"Capsella bursa-pastoris; Capsella bursa-pastoris, 480 h, dosage 190 g/hm^2, read-out: actual fresh weight inhibition rate",42.7%
same,pest or weed control at 375 g/ha,"Capsella bursa-pastoris; Capsella bursa-pastoris, 480 h, dosage 375 g/hm^2, read-out: actual fresh weight inhibition rate",55.7%
same,pest or weed control at 560 g/ha,"Capsella bursa-pastoris; Capsella bursa-pastoris, 480 h, dosage 560 g/hm^2, read-out: actual fresh weight inhibition rate",78.6%
same,pest or weed control at 190 g/ha,"Myosoton aquaticum; Myosoton aquaticum, 480 h, dosage 190 g/hm^2, read-out: actual fresh weight inhibition rate",25.8%
same,pest or weed control at 375 g/ha,"Myosoton aquaticum; Myosoton aquaticum, 480 h, dosage 375 g/hm^2, read-out: actual fresh weight inhibition rate",38.5%
same,pest or weed control at 560 g/ha,"Myosoton aquaticum; Myosoton aquaticum, 480 h, dosage 560 g/hm^2, read-out: actual fresh weight inhibition rate",57.3%
"Cc1nn(-c2cc(CC(Cl)C(=O)O)c(Cl)cc2F)c(=O)n1C(F)F (stereo not drawn) [carfentrazone, reference compound]",actual fresh weight inhibition rate (%),Capsella bursa-pastoris; dosage 12 g/hm^2,55.2%
same,actual fresh weight inhibition rate (%),Capsella bursa-pastoris; dosage 24 g/hm^2,71.3%
same,actual fresh weight inhibition rate (%),Capsella bursa-pastoris; dosage 36 g/hm^2,80.5%
same,actual fresh weight inhibition rate (%),Myosoton aquaticum; dosage 12 g/hm^2,32.1%
same,actual fresh weight inhibition rate (%),Myosoton aquaticum; dosage 24 g/hm^2,45.8%
same,actual fresh weight inhibition rate (%),Myosoton aquaticum; dosage 36 g/hm^2,60.1%
Cc1ccc(NC(=O)N(C)C)cc1Cl [chlorotoluron],pest or weed control at 1500 g/ha,"Capsella bursa-pastoris; Capsella bursa-pastoris, 480 h, dosage 1500 g/hm^2, read-out: actual fresh weight inhibition rate",33.5%
same,pest or weed control at 2250 g/ha,"Capsella bursa-pastoris; Capsella bursa-pastoris, 480 h, dosage 2250 g/hm^2, read-out: actual fresh weight inhibition rate",43.7%
same,pest or weed control at 3000 g/ha,"Capsella bursa-pastoris; Capsella bursa-pastoris, 480 h, dosage 3000 g/hm^2, read-out: actual fresh weight inhibition rate",57.3%
same,pest or weed control at 1500 g/ha,"Myosoton aquaticum; Myosoton aquaticum, 480 h, dosage 1500 g/hm^2, read-out: actual fresh weight inhibition rate",34.7%
same,pest or weed control at 2250 g/ha,"Myosoton aquaticum; Myosoton aquaticum, 480 h, dosage 2250 g/hm^2, read-out: actual fresh weight inhibition rate",43.8%
same,pest or weed control at 3000 g/ha,"Myosoton aquaticum; Myosoton aquaticum, 480 h, dosage 3000 g/hm^2, read-out: actual fresh weight inhibition rate",60.1%
O=C(Nc1ccc(F)cc1F)c1cccnc1Oc1cccc(C(F)(F)F)c1 [diflufenican],pest or weed control at 40 g/ha,"Capsella bursa-pastoris; 480 h, Capsella bursa-pastoris, 40 g/hm^2, read-out: actual fresh weight inhibition rate",33.1%
same,pest or weed control at 80 g/ha,"Capsella bursa-pastoris; 480 h, Capsella bursa-pastoris, 80 g/hm^2, read-out: actual fresh weight inhibition rate",48.2%
same,pest or weed control at 120 g/ha,"Capsella bursa-pastoris; 480 h, Capsella bursa-pastoris, 120 g/hm^2, read-out: actual fresh weight inhibition rate",63.4%
same,pest or weed control at 40 g/ha,"Myosoton aquaticum; Myosoton aquaticum, 480 h, Myosoton aquaticum, 40 g/hm^2, read-out: actual fresh weight inhibition rate",24.1%
same,pest or weed control at 80 g/ha,"Myosoton aquaticum; Myosoton aquaticum, 480 h, Myosoton aquaticum, 80 g/hm^2, read-out: actual fresh weight inhibition rate",46.2%
same,pest or weed control at 120 g/ha,"Myosoton aquaticum; Myosoton aquaticum, 480 h, Myosoton aquaticum, 120 g/hm^2, read-out: actual fresh weight inhibition rate",66.5%
CN(C)C(=O)SCCCCOc1ccccc1 [fenothiocarb],pest or weed control at 40 g/ha,Capsella bursa-pastoris; [1],0%
same,pest or weed control at 65 g/ha,Capsella bursa-pastoris; [1],0%
same,pest or weed control at 90 g/ha,Capsella bursa-pastoris; [1],0%
same,pest or weed control at 40 g/ha,Myosoton aquaticum; [2],70.3%
same,pest or weed control at 65 g/ha,Myosoton aquaticum; [2],84.5%
same,pest or weed control at 90 g/ha,Myosoton aquaticum; [2],97.3%
